Assay results taken from patent US9696323B2, “Biomarkers for chagas disease related cardiomyopathy” (THE BOARD OF REGENTS OF THE UNIVERSITY OF TEXAS SYSTEM, priority 2013, dated 2017).

System: T. cruzi
Test: 2D-GE plasma proteome profile (differential protein expression) of T. cruzi-infected rats treated with PBN and/or BZ
Type: in vivo, rat
Conditions: for expression of inflammation-associated plasma proteins: APOH
Description: Certain embodiments include biomarkers identified in a previous study. Parasite persistence and oxidative damage in the heart are known to be of pathological significance during Chagas disease (Zacks et al., (2005) An Acad Bras Cienc, 77, 695-715; Gupta et al., (2009) Interdiscip Perspect Infect Dis, 2009, 190354). […] In the previous study the inventors identified 92 proteins that were differentially expressed or oxidized in chagasic plasma. Functional analysis allocated a majority of these proteins to inflammation/immunity and lipid metabolism categories, and to molecular pathways associated with cardiovascular dysfunction, e.g., myocardial infarction, hypertrophy, and fibrosis, and pulmonary embolism and hypertension. Some proteins in chagasic rats treated with PBN and/or BZ were allocated to curative pathways (immune regulation and cardiac remodeling). The 2D-GE results were validated by Western blotting. […] Increased plasma levels of GSN, MYL2, and VIM were directly correlated with the severity of cardiac disease in human chagasic patients. […] These findings have utility in diagnosing disease severity and designing suitable therapy for management of human chagasic patients.
Ingenuity Pathway Analysis (IPA) is a highly curated and comprehensive software used for the integration of proteins into networks and pathways with biological meaning (Thomas and Bonchev, (2010). Hum Genomics, 4, 353-360). Network analysis of the plasma proteome profile of chagasic rats identified four major sub-networks linked to host response to T. cruzi infection and disease development (Table V). The maximal numbers of the differentially expressed plasma proteins (19 proteins) in chagasic rats were associated with antigen presentation and inflammatory response category (Table V) and indicators of persistent inflammation, known to be of pathological significance in Chagas disease (Dhiman et al., (2009) Clinical and Vaccine Immunology, 16, 660-666; Tanowitz et al., (2009) Prog Cardiovasc Dis, 51, 524-539; Junqueira et al., (2010) Expert Rev Mol Med, 12, e29). Following functional analysis of the inflammation-associated proteins, 12 proteins (APOA1, APOE, C3, CFB, CFH, FGB, GSN, KRT10, PLG, SCG2, SERPINA1, and SERPINC1) were identified as being involved in immune cell trafficking and cell movement of leukocytes, granulocytes, phagocytes, neutrophils, and dendritic and antigen presenting cells. Some of the differentially expressed proteins in inflammation category were associated with activation (APOE, C3, CFH, GC and PLG), chemotaxis (C3, SCG2, SERPINA1, SERPINC1), and infiltration of leukocytes (APOA1, APOE, C3, PLG, KRT10) and neutrophils (C3, CFB, CFH, PLG). Up regulation of APOE, APOA1, APOH, GC and PLG in chagasic plasma was indicative of activation, binding and accumulation of macrophages in the disease state. Of the 19 differentially expressed inflammation-associated proteins, 11 proteins (APOE, C3, CFB, CFH, GSN, KRT10, SCG2, SERPINA1, SERPINC1, GC, and PLG) were carbonylated in chagasic plasma. […] Other proteins (APOE, C3, KRT3, and SCG2) were exposed to oxidation due to T. cruzi-induced, acute oxidative stress, but were normalized in expression and oxidation during the chronic phase.
Seventeen of the differentially expressed proteins in chagasic plasma, i.e., AFM, C4BPA, CACNA1D, DLGAP2, GC, KNG1, MUG1, MYLPF, MY05A, MY05B, PRPH, PZP, RAI14, and SCG2, were allotted to the lipid metabolism/molecular transport/small molecule biochemistry category (Table V) and functionally linked by IPA network analysis to lipid, fatty acid, and carbohydrate metabolism. A majority of the proteins in this category, i.e., ALB, APOA1, APOA4, APOE, APOH, C3, GC, GNAQ, MY05A, PLG, SCD2, SERPINA1, SERPINC1 and VIM, were linked to the synthesis, metabolism, transport, and modification of lipids and fatty acids, and to uptake and release or efflux of lipids, eicosanoids, and cholesterol. […]

[1] = plasma, RAP group (acute infection)

CC(C)(C)/[N+]([O-])=C/c1ccccc1 [PBN]
expression of inflammation-associated plasma proteins (acutely infected rats, APOE, CFH, PLG and SCG2): normalized or regulated the expression | expression of inflammation-associated plasma proteins (chronically infected rats, GC, GSN and PLG): normalized or regulated the expression | expression level of CFB, GSN, C3, and SERPINC1 (infected rats): partly regulated | Spot# 12, 180 Average Normalized Density × 100,000 [1]: 21.47 | Spot# 34 Average Normalized Density × 100,000 [1]: 0.37 | Spot# 37, 593 Average Normalized Density × 100,000 [1]: 14.38 | Spot# 49, 673 Average Normalized Density × 100,000 [1]: 19.12 | Spot# 52, 54, 302 Average Normalized Density × 100,000 [1]: 9.80 | Spot# 53, 225 Average Normalized Density × 100,000 [1]: 8.76 | Spot# 72 Average Normalized Density × 100,000 [1]: 18.10 | Spot# 73, 705, 787 Average Normalized Density × 100,000 [1]: 46.94 | Spot# 77 Average Normalized Density × 100,000 [1]: 16.3 | Spot# 88 Average Normalized Density × 100,000 [1]: 74.61 | Spot# 94 Average Normalized Density × 100,000 [1]: 1.84 | Spot# 115, 123 Average Normalized Density × 100,000 [1]: 22.27 | Spot# 149 Average Normalized Density × 100,000 [1]: 0.78 | Spot# 153 Average Normalized Density × 100,000 [1]: 27.07 | Spot# 177 Average Normalized Density × 100,000 [1]: 3.71 | Spot# 181 Average Normalized Density × 100,000 [1]: 3.99 | Spot# 184, 257, 328 Average Normalized Density × 100,000 [1]: 4.54 | Spot# 207, 555 Average Normalized Density × 100,000 [1]: 13.23 | Spot# 215 Average Normalized Density × 100,000 [1]: 1.73 | Spot# 266 Average Normalized Density × 100,000 [1]: 0.75 | Spot# 299 Average Normalized Density × 100,000 [1]: 1.92 | Spot# 315 Average Normalized Density × 100,000 [1]: 6.24 | Spot# 334 Average Normalized Density × 100,000 [1]: 0.61 | Spot# 341 Average Normalized Density × 100,000 [1]: 0.59 | Spot# 355, 359 Average Normalized Density × 100,000 [1]: 2.99 | Spot# 382, 385, 378, 572, 578, 595 Average Normalized Density × 100,000 [1]: 33.76 | Spot# 389 Average Normalized Density × 100,000 [1]: 37.55 | Spot# 430 Average Normalized Density × 100,000 [1]: 22.40 | Spot# 434, 678 Average Normalized Density × 100,000 [1]: 55.14 | Spot# 439 Average Normalized Density × 100,000 [1]: 4.04 | Spot# 452 Average Normalized Density × 100,000 [1]: 18.92 | Spot# 464 Average Normalized Density × 100,000 [1]: 3.89 | Spot# 479 Average Normalized Density × 100,000 [1]: 23.96 | Spot# 493 Average Normalized Density × 100,000 [1]: 9.82 | Spot# 515 Average Normalized Density × 100,000 [1]: 6.87 | Spot# 524 Average Normalized Density × 100,000 [1]: 53.74 | Spot# 551, 587, 908 Average Normalized Density × 100,000 [1]: 88.04 | Spot# 559 Average Normalized Density × 100,000 [1]: 24.39 | Spot# 571 Average Normalized Density × 100,000 [1]: 7.84 | Spot# 576, 620 Average Normalized Density × 100,000 [1]: 18.08 | Spot# 586, 614 Average Normalized Density × 100,000 [1]: 50.44 | Spot# 592 Average Normalized Density × 100,000 [1]: 15.61 | Spot# 604 Average Normalized Density × 100,000 [1]: 22.81 | Spot# 606 Average Normalized Density × 100,000 [1]: 9.60 | Spot# 627 Average Normalized Density × 100,000 [1]: 30.23 | Spot# 638 Average Normalized Density × 100,000 [1]: 4.42 | Spot# 649 Average Normalized Density × 100,000 [1]: 40.69 | Spot# 651 Average Normalized Density × 100,000 [1]: 94.03 | Spot# 655 Average Normalized Density × 100,000 [1]: 240.6 | Spot# 672 Average Normalized Density × 100,000 [1]: 7.34 | Spot# 676 Average Normalized Density × 100,000 [1]: 14.69 | Spot# 691 Average Normalized Density × 100,000 [1]: 49.99 | Spot# 715 Average Normalized Density × 100,000 [1]: 10.83 | Spot# 724 Average Normalized Density × 100,000 [1]: 1.72 | Spot# 728 Average Normalized Density × 100,000 [1]: 0.76 | Spot# 733 Average Normalized Density × 100,000 [1]: 2.24 | Spot# 740 Average Normalized Density × 100,000 [1]: 7.81 | Spot# 745 Average Normalized Density × 100,000 [1]: 4.51 | Spot# 749 Average Normalized Density × 100,000 [1]: 4.71 | Spot# 766 Average Normalized Density × 100,000 [1]: 3.20 | Spot# 779, 909 Average Normalized Density × 100,000 [1]: 5.45 | Spot# 796 Average Normalized Density × 100,000 [1]: 9.97 | Spot# 814 Average Normalized Density × 100,000 [1]: 0.60 | Spot# 817 Average Normalized Density × 100,000 [1]: 12.14 | Spot# 820, 1081 Average Normalized Density × 100,000 [1]: 4.59 | Spot# 827 Average Normalized Density × 100,000 [1]: 17.91 | Spot# 832 Average Normalized Density × 100,000 [1]: 6.23 | Spot# 860 Average Normalized Density × 100,000 [1]: 3.06 | Spot# 867 Average Normalized Density × 100,000 [1]: 2.56 | Spot# 881 Average Normalized Density × 100,000 [1]: 13.92 | Spot# 897 Average Normalized Density × 100,000 [1]: 4.82 | Spot# 900 Average Normalized Density × 100,000 [1]: 25.94 | Spot# 906 Average Normalized Density × 100,000 [1]: 49.40 | Spot# 966 Average Normalized Density × 100,000 [1]: 53.33
